Consider 22 compounds from US12304912B2, “Fused bicyclic RAF inhibitors and methods for use thereof” (Jazz Pharmaceuticals Ireland Limited, priority 2020, dated 2025).

A short description of one data set: FeSSIF solubility assay. Particulars: pH 5 acetate buffer, 37° C.; for solubility thermodynamic at 24 h: fed state simulated intestinal fluid (FeSSIF), thermodynamic from solid. The format is physicochemical. The method, boiled down: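 FeSSIF (pH 5 acetate buffer, 1 mL) was added to 1.0 mg solid compound and shaken at 650 rpm and 37 °C for 24 h. After filtration, dissolved compound was quantified by LC-UV against a 250 μM calibration standard.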

The next data set has as its system WiDr cells. Description: WiDr CellTiter-Glo 3D cell proliferation assay. The settings on record: Homo sapiens; WiDr cells, 3D proliferation; read-out: 3D WiDr pGI50 (converted). The format is cell-based.
A further data set has as its system HCT-116 cells. As to the kind of experiment: HCT-116 CellTiter-Glo 3D cell proliferation assay. The settings on record: Homo sapiens, HCT-116; HCT116 cells, 3D proliferation; read-out: 3D HCT116 pGI50 (converted). The class given is cell-based. As for the experimental part: HCT-116 CellTiter-Glo 3D Cell Proliferation Assay
The human HCT-116 colorectal carcinoma cell line (ATCC CCL-247) endogenously expresses the KRAS^G13D mutation, which leads to enhanced survival and proliferative signaling. […] On the first day, HCT-116 cells were harvested, resuspended in growth medium (McCoys5A with Glutamax (Life Technologies 36600021) with 10% heat-inactivated fetal bovine serum (Sigma F9665)), and counted. Cells were plated in 100 μl per well in each well of a Corning 7007 96-well clear round bottom Ultra-Low Attachment plate (VWR 444-1020) to a final density of 1000 cells per well. Cells were seeded for pre- and post-treatment readouts. The cells were then incubated at 37° C. and 5% CO2 for 3 days (72 hours) to allow spheroid formation. After 72 hours, the plate seeded for a pre-treatment read was removed from the incubator to allow equilibration to room temperature for 30 minutes, before CellTitre-Glo® reagent was added to each well. The plates were incubated at room temperature for 5 minutes shaking at 300 rpm, followed by an incubation of 25 minutes on the benchtop before being read on the Envision reader (Perkin Elmer) as described below. On the same day, the cells plated for the post-treatment readout were dosed with compounds to produce a 9-point dose response, where the top concentration was 15 μM and following concentrations were at 1/2 log dilution intervals. These cells were subsequently incubated at 37° C. and 5% CO2 for another 4 days (96 hours). After 4 days, the plate was removed from the incubator to allow equilibration to room temperature for 30 minutes and treated with CellTitre Glo® reagent as stated above. […] The CellTitre Glo® reagent lyses the cells and contains luciferin and a luciferase (Ultra-Glo™ Recombinant Luciferase), which in the presence of ATP and oxygen can produce bioluminescence from luciferin. Therefore, plates were read on an EnVision reader (Perkin Elmer) and luminescence signals were recorded. Cell proliferation was determined on 4 days after dosing relative to the pre-treatment read. All data were analyzed using the Dotmatics or GraphPad Prism software packages. Inhibition of proliferation was assessed by determination of the GI50 value, which was defined as the concentration of compound required to decrease the level of cell proliferation by 50% when compared to DMSO control.

SMILES strings stand for the structures. Values after ≈ are worked out from the molar mass of the structure shown. Like-named read-outs stand apart in the source and are kept apart here.

As for `O=C1CCc2c(Oc3ccc4c(c3)CC(c3nc(-c5ccnc(C(F)(F)F)c5)c[nH]3)CO4)ccnc2N1` (stereo not shown) [Compound 8, 5-[3-[4-[2-(trifluoromethyl)-4-pyridyl]-1H-imidazol-2-yl]chroman-6-yl]oxy-3,4-dihydro-1H-1,8-naphthyridin-2-one], the solubility thermodynamic at 24 h in the data set “FeSSIF solubility assay” (read-out: Sol (FESSIF)) was 18.5 µg/mL (≈ 36.5 µM). The “FESSIF Sol” value in the data set “FeSSIF solubility assay” (24 h) is recorded as 18.5 mg/L. Also, the GI50 in the data set with WiDr cells was 191 nM; in the data set on HCT-116 cells, 138 nM.

Take `O=C1CCc2c(Oc3ccc4c(c3)CC(c3nc(-c5ccnc(C(F)F)c5)c[nH]3)CO4)ccnc2N1` (stereo not shown) [Compound 101, 5-[3-[4-[2-(difluoromethyl)-4-pyridyl]-1H-imidazol-2-yl]chroman-6-yl]oxy-3,4-dihydro-1H-1,8-naphthyridin-2-one]: in the data set “FeSSIF solubility assay” (read-out: FESSIF Sol), the solubility thermodynamic at 24 h is 5.7 µg/mL (≈ 11.6 µM). Further, the GI50 in the data set on WiDr cells is 309 nM; with HCT-116 cells, 85.1 nM.

Take `O=C1CCc2c(Oc3ccc4c(c3)CC(c3nc(-c5cncc(C(F)(F)F)c5)c[nH]3)CO4)ccnc2N1` (stereo not shown) [Compound 103, 5-[3-[4-[5-(trifluoromethyl)-3-pyridyl]-1H-imidazol-2-yl]chroman-6-yl]oxy-3,4-dihydro-1H-1,8-naphthyridin-2-one]: the solubility thermodynamic at 24 h in the data set “FeSSIF solubility assay” (read-out: FESSIF Sol) is 5.2 µg/mL (≈ 10.2 µM). For the same compound, the GI50 in the data set with WiDr cells is 537 nM; in the data set with HCT-116 cells, 288 nM.

Regarding `O=C1CCc2c(Oc3ccc4c(c3)CC(c3nc(-c5cncc(C(F)F)c5)c[nH]3)CO4)ccnc2N1` (stereo not shown) [Compound 105, 5-[3-[4-[5-(difluoromethyl)-3-pyridyl]-1H-imidazol-2-yl]chroman-6-yl]oxy-3,4-dihydro-1H-1,8-naphthyridin-2-one], the solubility thermodynamic at 24 h in “FeSSIF solubility assay” (read-out: FESSIF Sol) is 8.6 µg/mL (≈ 17.6 µM). Moreover, the results for the GI50 in the data set on WiDr cells and with HCT-116 cells were 603 nM and 245 nM, respectively.

Consider `Cc1cc(-c2c[nH]c(C3COc4ccc(Oc5ccnc6c5CCC(=O)N6)cc4C3)n2)n(C)n1` (stereo not shown) [Compound 106, 5-[3-[4-(2,5-dimethylpyrazol-3-yl)-1H-imidazol-2-yl]chroman-6-yl]oxy-3,4-dihydro-1H-1,8-naphthyridin-2-one], for which, in “FeSSIF solubility assay” (read-out: FESSIF Sol), the solubility thermodynamic at 24 h is 28.1 µg/mL (≈ 61.6 µM). The GI50 with WiDr cells is 1550 nM; in the data set on HCT-116 cells, 437 nM.

Take `Cc1ccc(-c2c[nH]c(C3COc4ccc(Oc5ccnc6c5CCC(=O)N6)cc4C3)n2)s1` (stereo not shown) [Compound 110]: the solubility thermodynamic at 24 h in the data set “FeSSIF solubility assay” (read-out: FESSIF Sol) is 8.5 µg/mL (≈ 18.5 µM). Moreover, the GI50 in the data set on WiDr cells was 200 nM; in the data set with HCT-116 cells, 70.8 nM.

On to `CCc1cc(-c2c[nH]c(C3COc4ccc(Oc5ccnc6c5CCC(=O)N6)cc4C3)n2)n(C)n1` (stereo not shown) [Compound 111], for which, in the data set “FeSSIF solubility assay” (read-out: FESSIF Sol), the solubility thermodynamic at 24 h was 70 µg/mL (≈ 149 µM). Further, the GI50 with WiDr cells is 1020 nM; in the data set on HCT-116 cells, 316 nM.

For `CC(C)(C)CCc1c[nH]c(C2COc3ccc(Oc4ccnc5c4CCC(=O)N5)cc3C2)n1` (stereo not shown) [Compound 115, 5-[3-[4-(3,3-dimethylbutyl)-1H-imidazol-2-yl]chroman-6-yl]oxy-3,4-dihydro-1H-1,8-naphthyridin-2-one], the solubility thermodynamic at 24 h in the data set “FeSSIF solubility assay” (read-out: FESSIF Sol) is 129 µg/mL (≈ 289 µM). The GI50 with WiDr cells is 38 nM; in the data set with HCT-116 cells, 67.6 nM.

In the case of `CC(C)CCc1c[nH]c(C2COc3ccc(Oc4ccnc5c4CCC(=O)N5)cc3C2)n1` (stereo not shown) [Compound 116], in the data set “FeSSIF solubility assay” (read-out: FESSIF Sol), the solubility thermodynamic at 24 h was 311 µg/mL (≈ 720 µM). Further, the GI50 with WiDr cells was 126 nM; in the data set on HCT-116 cells, 66.1 nM.

Take `Cc1cc(-c2c[nH]c(C3COc4ccc(Oc5ccnc6c5CCC(=O)N6)cc4C3)n2)ccn1` (stereo not shown) [Compound 117, 5-[3-[4-(2-methyl-4-pyridyl)-1H-imidazol-2-yl]chroman-6-yl]oxy-3,4-dihydro-1H-1,8-naphthyridin-2-one]: the solubility thermodynamic at 24 h in “FeSSIF solubility assay” (read-out: FESSIF Sol) was 1.4 µg/mL (≈ 3.09 µM). The GI50 in the data set with WiDr cells is 708 nM; in the data set with HCT-116 cells, 214 nM.

As for `COc1csc(-c2c[nH]c(C3COc4ccc(Oc5ccnc6c5CCC(=O)N6)cc4C3)n2)c1` (stereo not shown) [Compound 122, 5-[3-[5-(4-methoxy-2-thienyl)-1H-imidazol-2-yl]chroman-6-yl]oxy-3,4-dihydro-1H-1,8-naphthyridin-2-one], the solubility thermodynamic at 24 h in the data set “FeSSIF solubility assay” (read-out: FESSIF Sol) is 124 µg/mL (≈ 260 µM). In addition, the GI50 with WiDr cells was 513 nM; in the data set with HCT-116 cells, 182 nM.

As for `COc1ccsc1-c1c[nH]c(C2COc3ccc(Oc4ccnc5c4CCC(=O)N5)cc3C2)n1` (stereo not shown) [Compound 123], the solubility thermodynamic at 24 h in the data set “FeSSIF solubility assay” (read-out: FESSIF Sol) is 156 µg/mL (≈ 330 µM). The GI50 is 53.7 nM in the data set on WiDr cells and 40.7 nM with HCT-116 cells.

As for `CCn1nc(C)cc1-c1c[nH]c(C2COc3ccc(Oc4ccnc5c4CCC(=O)N5)cc3C2)n1` (stereo not shown) [Compound 124, 5-[3-[4-(2-ethyl-5-methyl-pyrazol-3-yl)-1H-imidazol-2-yl]chroman-6-yl]oxy-3,4-dihydro-1H-1,8-naphthyridin-2-one], the solubility thermodynamic at 24 h in the data set “FeSSIF solubility assay” (read-out: FESSIF Sol) is 3 µg/mL (≈ 6.38 µM). The GI50 in the data set on WiDr cells was 1450 nM; in the data set with HCT-116 cells, 724 nM.

As for `Cn1nc(C2CC2)cc1-c1c[nH]c(C2COc3ccc(Oc4ccnc5c4CCC(=O)N5)cc3C2)n1` (stereo not shown) [Compound 125, 5-[3-[4-(5-cyclopropyl-2-methyl-pyrazol-3-yl)-1H-imidazol-2-yl]chroman-6-yl]oxy-3,4-dihydro-1H-1,8-naphthyridin-2-one], in the data set “FeSSIF solubility assay” (read-out: FESSIF Sol), the solubility thermodynamic at 24 h is 22 µg/mL (≈ 45.6 µM). Also, the results for the GI50 with WiDr cells and in the data set with HCT-116 cells were 15100 nM and 1120 nM, respectively.

For `O=C1CCc2c(Oc3ccc4c(c3)CC(c3nc(C5CCOCC5)c[nH]3)CO4)ccnc2N1` (stereo not shown) [Compound 132, 5-[3-(4-tetrahydropyran-4-yl-1H-imidazol-2-yl)chroman-6-yl]oxy-3,4-dihydro-1H-1,8-naphthyridin-2-one], in the data set “FeSSIF solubility assay” (read-out: FESSIF Sol), the solubility thermodynamic at 24 h is 41.9 µg/mL (≈ 93.8 µM). In addition, the GI50 with WiDr cells was 1150 nM; with HCT-116 cells it was 661 nM.

Take `O=C(Nc1cc(Oc2ccc3c(c2)CC(c2nc(-c4ccccc4)c[nH]2)CO3)ccn1)C1CC1(F)F` (stereo not shown) [Compound 137, 2,2-difluoro-N-[4-[3-(4-phenyl-1H-imidazol-2-yl)chroman-6-yl]oxy-2-pyridyl]cyclopropanecarboxamide]: the solubility thermodynamic at 24 h in the data set “FeSSIF solubility assay” (read-out: FESSIF Sol) was 73.9 µg/mL (≈ 151 µM). In addition, the GI50 was 126 nM with WiDr cells and 70.8 nM with HCT-116 cells.

Turning to `Cc1c[nH]c(-c2cc(Oc3ccc4c(c3)CC(c3nc(-c5ccccc5)c[nH]3)CO4)ccn2)n1` (stereo not shown) [Compound 143, 2-(4-methyl-1H-imidazol-2-yl)-4-[3-(4-phenyl-1H-imidazol-2-yl)chroman-6-yl]oxy-pyridine], the solubility thermodynamic at 24 h in “FeSSIF solubility assay” (read-out: FESSIF Sol) was 44.7 µg/mL (≈ 99.4 µM). Also, the GI50 was 1510 nM in the data set with WiDr cells and 741 nM in the data set on HCT-116 cells.

`O=C(Cn1ccnc1)Nc1cc(Oc2ccc3c(c2)CC(c2nc(-c4ccccc4)c[nH]2)CO3)ccn1` (stereo not shown) [Compound 144]: the solubility thermodynamic at 24 h in “FeSSIF solubility assay” (read-out: FESSIF Sol) was 318 µg/mL (≈ 645 µM). In addition, the results for the GI50 in the data set on WiDr cells and in the data set with HCT-116 cells were 380 nM and 100 nM, respectively.

As for `CN1CCN(CC(=O)Nc2cc(Oc3ccc4c(c3)CC(c3nc(-c5ccccc5)c[nH]3)CO4)ccn2)CC1` (stereo not shown) [Compound 146, 2-(4-methylpiperazin-1-yl)-N-[4-[3-(4-phenyl-1H-imidazol-2-yl)chroman-6-yl]oxy-2-pyridyl]acetamide], the solubility thermodynamic at 24 h in the data set “FeSSIF solubility assay” (read-out: FESSIF Sol) was 404 µg/mL (≈ 770 µM). The GI50 in the data set with WiDr cells is 813 nM; in the data set on HCT-116 cells, 380 nM.

With `CN1CCC(C(=O)Nc2cc(Oc3ccc4c(c3)CC(c3nc(-c5ccccc5)c[nH]3)CO4)ccn2)CC1` (stereo not shown) [Compound 147, 1-methyl-N-[4-[3-(4-phenyl-1H-imidazol-2-yl)chroman-6-yl]oxy-2-pyridyl]piperidine-4-carboxamide], in “FeSSIF solubility assay” (read-out: FESSIF Sol), the solubility thermodynamic at 24 h was 528 µg/mL (≈ 1040 µM). Further, the GI50 with WiDr cells and with HCT-116 cells was 1380 nM in each case.

For `O=C(Nc1nccc(Oc2ccc3c(c2)CC(c2nc(-c4ccccc4)c[nH]2)CO3)n1)C1CC1` (stereo not shown) [Compound 148, N-[4-[3-(4-phenyl-1H-imidazol-2-yl)chroman-6-yl]oxypyrimidin-2-yl]cyclopropanecarboxamide], the solubility thermodynamic at 24 h in “FeSSIF solubility assay” (read-out: FESSIF Sol) was 104 µg/mL (≈ 230 µM). Moreover, the GI50 in the data set with WiDr cells was 1200 nM; in the data set on HCT-116 cells, 490 nM.

On to `O=C(CN1CCOCC1)Nc1cc(Oc2ccc3c(c2)CC(c2nc(-c4ccccc4)c[nH]2)CO3)ccn1` (stereo not shown) [Compound 149], for which the solubility thermodynamic at 24 h in “FeSSIF solubility assay” (read-out: FESSIF Sol) was 200 µg/mL (≈ 391 µM). Moreover, the values for the GI50 in the data set on WiDr cells and in the data set with HCT-116 cells were 2240 nM and 851 nM, respectively.
